The text below walks through data of patent US20100292255A1, “Therapeutic Compounds and Their Use in Treating Diseases and Disorders” (Myriad Pharmaceuticals, Inc., priority 2007, published 2010).

In the first assay the test system is T1, purified human Hsp90.
T1 construct: purified human Hsp90 (Stressgen, SPP-770)
The experiment in a line: Hsp90 binding assay: displacement of BODIPY-labeled geldanamycin measured by fluorescence polarization. Particulars: 5 μM compound; BODIPY-GM 10 nM, Hsp90 30 nM, overnight at room temperature. On the procedure: Binding of the Example Compounds to purified Hsp90 was assayed by measuring the displacement of BODIPY-labeled geldanamycin (BODIPY-GM) from purified human Hsp90, using a fluorescence polarization assay adapted from Kim et al. (J. Biomolec. Screening, 9(5):375-381 (2004)). Compound dilutions (in 100% DMSO) were added to black-bottom 96-well plates (Greiner Bio-One, Monroe, N.C.) in 2% DMSO final, and equal volumes of BODIPY-GM (10 nM final) and purified human Hsp90 (Stressgen, SPP-770; 30 nM final) (Assay Designs, Ann Arbor, Mich.) in assay buffer (20 mM HEPES-KOH pH 7.3, 50 mM KCl, 5 mM MgCl2, 20 mM Na2MoO4, 0.01% NP-40, 0.1 mg/mL bovine gamma globulin [P2045; Invitrogen, Carlsbad, Calif.], 2 mM DTT) were added sequentially to yield a final volume of 50 microliters. Plates were incubated overnight at room temperature. Parallel and perpendicular fluorescence measurements were read (Analyst AD plate reader; LJL BioSystems, Middletown, Conn.) with excitation/emission wavelengths of 485/530 nm. Background fluorescence (buffer only) was subtracted, and fluorescence polarization (FP) values, expressed in mP units, were calculated from parallel and perpendicular fluorescence readings as follows:
FP=(parallel−perpendicular)/(parallel+perpendicular)*1000.
Percent inhibition was calculated by normalizing the FP values to those obtained in parallel reactions containing DMSO and subtracting these normalized values from 100%. Intrinsic compound fluorescence was independently monitored, and FP data points confounded by compound fluorescence were excluded from the analysis.
Background: Fluorescence polarisation rises when a labelled molecule tumbles more slowly, as on binding a larger partner.
Consider `N#Cc1cc2c(cc1Sc1nc3c(N)ncn(CCC4CCN(C=O)CC4)c-3n1)CCC2=O` [compound 2, 6-({6-amino-3-[2-(1-formylpiperidin-4-yl)ethyl]-3H-purin-8-yl}thio)-3-oxoindane-5-carbonitrile], for which the “GM displacement from purified Hsp90 measured by FP Inhibition by 5 μM compd. (%)” value stood at 24.0%.

As to `CS(=O)(=O)N1CCCC(CCn2cnc(N)c3nc(Sc4cc5c(cc4Br)OCCO5)nc2-3)C1` (stereo not shown) [compound 13, 8-[(7-Bromo-2,3-dihydro-1,4-benzodioxin-6-yl)thio]-3-{2-[1-(methylsulfonyl)piperidin-3-yl]ethyl}-3H-purin-6-amine], the “GM displacement from purified Hsp90 measured by FP Inhibition by 5 μM compd. (%)” value was 38.0%.

On to `CCCN1CCCCC1CCn1cnc(N)c2nc(Sc3cc4c(cc3Br)OCCO4)nc1-2` (stereo not shown) [compound 16, 8-[(7-Bromo-2,3-dihydro-1,4-benzodioxin-6-yl)thio]-3-[2-(1-propylpiperidin-2-yl)ethyl]-3H-purin-6-amine], for which the “GM displacement from purified Hsp90 measured by FP Inhibition by 5 μM compd. (%)” value amounted to 73.0%.

The same assay, now with this note: BODIPY-GM 10 nM, Hsp90 30 nM, overnight at room temperature; read-out: GM displacement from purified Hsp90 measured by FP IC 50.
Turning to `C[C@H](O)C(=O)N1CCC(CCn2c(Sc3cc4c(cc3Cl)OCO4)nc3c(N)ncnc32)CC1` [Example Compound 203, (2S)-1-[4-(2-{6-Amino-8-[(6-chloro-1,3-benzodioxol-5-yl)thio]-9H-purin-9-yl}ethyl)piperidin-1-yl]-1-oxopropan-2-ol], the IC50 stood at 395 nM.

Turning to `C[C@@H](O)C(=O)N1CCC(CCn2c(Sc3cc4c(cc3Cl)OCO4)nc3c(N)ncnc32)CC1` [Example Compound 204, (2R)-1-[4-(2-{6-Amino-8-[(6-chloro-1,3-benzodioxol-5-yl)thio]-9H-purin-9-yl}ethyl)piperidin-1-yl]-1-oxopropan-2-ol], the IC50 worked out at 400 nM.

Take `Nc1ncnc2c1nc(Sc1cc3c(cc1Cl)OCO3)n2CCC1CCN(C(=O)CO)CC1` [Example Compound 205, 2-[4-(2-{6-Amino-8-[(6-chloro-1,3-benzodioxol-5-yl)thio]-9H-purin-9-yl}ethyl)piperidin-1-yl]-2-oxoethanol]: the IC50 was 497 nM.

`C[C@H](O)C(=O)N1CCCC[C@@H]1CCn1c(Sc2cc3c(cc2Br)OCO3)nc2c(N)ncnc21` [Example Compound 206, (2S)-1-[(2R)-2-(2-{6-Amino-8-[(6-bromo-1,3-benzodioxol-5-yl)thio]-9H-purin-9-yl}ethyl)piperidin-1-yl]-1-oxopropan-2-ol]: the IC50 was > 5000 nM.

For `C[C@H](O)C(=O)N1CCCC[C@H]1CCn1c(Sc2cc3c(cc2Br)OCO3)nc2c(N)ncnc21` [Example Compound 207, (2S)-1-[(2S)-2-(2-{6-Amino-8-[(6-bromo-1,3-benzodioxol-5-yl)thio]-9H-purin-9-yl}ethyl)piperidin-1-yl]-1-oxopropan-2-ol], the IC50 was > 5000 nM.

Consider `COc1cc(Br)c(Sc2nc3c(N)ncnc3n2CCC2CCN(C(=O)[C@H](C)O)CC2)cc1OC` [Example Compound 208, (2S)-1-[4-(2-{6-Amino-8-[(2-bromo-4,5-dimethoxyphenyl)thio]-9H-purin-9-yl}ethyl)piperidin-1-yl]-1-oxopropan-2-ol], for which the IC50 is > 5000 nM.

`C[C@H](O)C(=O)N1CCC(CCn2c(Sc3cc(O)c(O)cc3Br)nc3c(N)ncnc32)CC1` [Example Compound 209, 4-{[6-Amino-9-(2-{1-[(2S)-2-hydroxypropanoyl]piperidin-4-yl}ethyl)-9H-purin-8-yl]thio}-5-bromobenzene-1,2-diol]: the IC50 was 2100 nM.

On to `Nc1ncnc2c1nc(Sc1cc3c(cc1Br)OCO3)n2C1CCNCC1` [Example Compound 211, 8-[(6-Bromo-1,3-benzodioxol-5-yl)thio]-9-piperidin-4-yl-9H-purin-6-amine], for which the IC50 amounted to 950 nM.

As for `C[C@H](O)C(=O)N1CCC(n2c(Sc3cc4c(cc3Br)OCO4)nc3c(N)ncnc32)CC1` [Example Compound 212, (2S)-1-(4-{6-amino-8-[(6-bromo-1,3-benzodioxol-5-yl)thio]-9H-purin-9-yl}piperidin-1-yl)-1-oxopropan-2-ol], the IC50 is 350 nM.

`Nc1ncnc2c1nc(Sc1cc3c(cc1Br)OCO3)n2C1CCN(C=O)CC1` [Example Compound 213, 4-{6-Amino-8-[(6-bromo-1,3-benzodioxol-5-yl)thio]-9H-purin-9-yl}piperidine-1-carbaldehyde]: the IC50 worked out at 580 nM.

`N#Cc1cc2c(cc1Sc1nc3c(N)ncnc3n1CCC1CCN(C=O)CC1)CCC2=O` [compound 1, 6-({6-Amino-9-[2-(1-formylpiperidin-4-yl)ethyl]-9H-purin-8-yl}thio)-3-oxoindane-5-carbonitrile]: the IC50 was 230 nM.

Regarding `COCCOCC(=O)N1CCC(CCn2c(Sc3cc4c(cc3Br)OCCO4)nc3c(N)ncnc32)CC1` [compound 3, 8-[(7-Bromo-2,3-dihydro-1,4-benzodioxin-6-yl)thio]-9-(2-{1-[(2-methoxyethoxy)acetyl]piperidin-4-yl}ethyl)-9H-purin-6-amine], the IC50 was found to be 80 nM.

Take `CO[C@@H](C)C(=O)N1CCC(CCn2c(Sc3cc4c(cc3Br)OCCO4)nc3c(N)ncnc32)CC1` [compound 4, 8-[(7-Bromo-2,3-dihydro-1,4-benzodioxin-6-yl)thio]-9-(2-{1-[(2S)-2-methoxypropanoyl]piperidin-4-yl}ethyl)-9H-purin-6-amine]: the IC50 worked out at 80 nM.

`COCCC(=O)N1CCC(CCn2c(Sc3cc4c(cc3Br)OCCO4)nc3c(N)ncnc32)CC1` [compound 5, 8-[(7-Bromo-2,3-dihydro-1,4-benzodioxin-6-yl)thio]-9-{2-[1-(3-methoxypropanoyl)piperidin-4-yl]ethyl}-9H-purin-6-amine]: the IC50 was found to be 63 nM.

Regarding `COCC(=O)N1CCC(CCn2c(Sc3cc4c(cc3Br)OCCO4)nc3c(N)ncnc32)CC1` [compound 6, 8-[(7-Bromo-2,3-dihydro-1,4-benzodioxin-6-yl)thio]-9-{2-[1-(methoxyacetyl)piperidin-4-yl]ethyl}-9H-purin-6-amine], the IC50 came out at 70 nM.

Take `CO[C@H](C)C(=O)N1CCC(CCn2c(Sc3cc4c(cc3Br)OCCO4)nc3c(N)ncnc32)CC1` [compound 7, 8-[(7-Bromo-2,3-dihydro-1,4-benzodioxin-6-yl)thio]-9-(2-{1-[(2R)-2-methoxypropanoyl]piperidin-4-yl}ethyl)-9H-purin-6-amine]: the IC50 was found to be 95 nM.

`Nc1ncnc2c1nc(Sc1cc3c(cc1Br)OCCO3)n2CCC1CCN(C(=O)C2CC2(F)F)CC1` (stereo not shown) [compound 8, 8-[(7-Bromo-2,3-dihydro-1,4-benzodioxin-6-yl)thio]-9-(2-{1-[(2,2-difluorocyclopropyl)carbonyl]piperidin-4-yl}ethyl)-9H-purin-6-amine]: the IC50 was found to be 90 nM.

Consider `CS(=O)(=O)N1CCCCC1CCn1c(Sc2cc3c(cc2Br)OCCO3)nc2c(N)ncnc21` (stereo not shown) [compound 10, 8-[(7-Bromo-2,3-dihydro-1,4-benzodioxin-6-yl)thio]-9-{2-[1-(methylsulfonyl)piperidin-2-yl]ethyl}-9H-purin-6-amine], for which the IC50 was found to be 160 nM.

With `CS(=O)(=O)N1CCCC(CCn2c(Sc3cc4c(cc3Br)OCCO4)nc3c(N)ncnc32)C1` (stereo not shown) [compound 12, 8-[(7-Bromo-2,3-dihydro-1,4-benzodioxin-6-yl)thio]-9-{2-[1-(methylsulfonyl)piperidin-3-yl]ethyl}-9H-purin-6-amine], the IC50 was determined as 65 nM.
